# Assays:
# [1] = Distribution coefficient between octanol and aqueous phase at pH7.2; format: physicochemical; conditions: pH 7.2
# [2] = Observed inhibitory activity against various Actinomycetes strains; conditions: actinomycetaceae
# [3] = Partition coefficient is determined in octanol/buffer solution; format: physicochemical
# [4] = Dissociation constant is the negative logarithm of the equilibrium coefficient of the neutral and charged forms of the compound; format: physicochemical
# [5] = test system: Actinomyces viscosus; test: In vitro antibacterial activity against Actinomyces viscosus M-100-2000; format: functional
# [6] = test system: Actinomyces israelii; test: In vitro antibacterial activity against Actinomycetes israelii 28360; format: functional
# [7] = test system: Actinomyces naeslundii; test: In vitro antibacterial activity against Actinomycetes naeslundii 12104; format: functional
# [8] = test system: Actinomyces naeslundii; test: In vitro antibacterial activity against Actinomycetes naeslundii 8115; format: functional
# [9] = test system: Actinomyces israelii; test: In vitro antibacterial activity against Actinomycetes israelii 10048; format: functional
# [10] = test system: Actinomyces viscosus; test: In vitro antibacterial activity against Actinomycetes viscosus T14V; format: functional
# [11] = test system: Actinomyces israelii; test: In vitro antibacterial activity against Actinomycetes israelii 12836; format: functional
compound,measurement,setting,value
CCCCCC(=O)c1ccc(O)c(C(=O)Nc2ccc(Br)cc2)c1,logD,[1],4.88
same,Log 1/MIC,[2],5.6
same,logP,"[3]; octanol/buffer, read-out: logP",6.02
same,pKa,[4],6.1
same,MIC,[5],1 µg/mL
CCCCCCc1cc(C(=O)Nc2ccc(Br)cc2)c(O)c([N+](=O)[O-])c1,logD,[1],5.96
same,Log 1/MIC,[2],6.02
same,logP,"[3]; octanol/buffer, read-out: logP",7.56
same,pKa,[4],5.6
same,MIC,[5],0.4 µg/mL
Cc1nnc(NC(=O)c2cc(Br)cc(Br)c2O)s1,MIC,[5],100 µg/mL
CCCCCCCC(=O)c1ccc(O)c(C(=O)Nc2nc3ccccc3s2)c1,MIC,[5],1 µg/mL
COc1ccc(NC(=O)c2cc(C)ccc2O)cc1,MIC,[5],> 40 µg/mL
Cc1cc(C(=O)Nc2ccc(Br)cc2)c(O)c([N+](=O)[O-])c1,logD,[1],3.46
same,Log 1/MIC,[2],3.94
same,logP,"[3]; octanol/buffer, read-out: logP",5.06
same,pKa,[4],5.6
same,MIC,[5],45 µg/mL
CCCCCCCCCCCC(=O)c1ccc(O)c(C(=O)NCc2ccc(Cl)c(Cl)c2)c1,MIC,[5],5 µg/mL
CCCCCCCCCCCC(=O)c1ccc(O)c(C(=O)Nc2nc3ccccc3s2)c1,MIC,[5],> 20 µg/mL
O=C(Nc1ccc([N+](=O)[O-])cc1)c1cc(Br)cc(Br)c1O,MIC,[5],0.5 µg/mL
CCC(=O)c1ccc(O)c(C(=O)Nc2ccc(Br)cc2)c1,logD,[1],3.38
same,Log 1/MIC,[2],4.43
same,logP,"[3]; octanol/buffer, read-out: logP",4.52
same,pKa,[4],6.1
same,MIC,[5],13 µg/mL
CCCCCCCCCCCC(=O)c1ccc(O)c(C(=O)Nc2cccc(C(F)(F)F)c2)c1,MIC,[6],0.1 µg/mL
same,MIC,[7],0.1 µg/mL
same,MIC,[8],0.05 µg/mL
same,MIC,[5],0.5 µg/mL
same,MIC,[9],0.1 µg/mL
same,MIC,[10],0.1 µg/mL
same,MIC,[11],0.5 µg/mL
CCCCc1ccc(O)c(C(=O)Nc2ccc(Br)cc2)c1,logD,[1],5.88
same,Log 1/MIC,[2],6.54
same,logP,"[3]; octanol/buffer, read-out: logP",6.09
same,pKa,[4],7.35
same,MIC,[5],0.1 µg/mL
O=C(Nc1nc2c(Cl)cccc2s1)c1cc(Br)cc(Br)c1O,MIC,[5],1.7 µg/mL
O=C(Nc1ccc(Br)cc1)c1cc(Br)ccc1O [DIBROMSALAN],logD,[1],4.75
same,Log 1/MIC,[2],5.87
same,logP,"[3]; octanol/buffer, read-out: logP",5.26
same,pKa,[4],6.85
same,MIC,[5],0.5 µg/mL
CCCCCCCCCCCCCC(=O)c1ccc(O)c(C(=O)Nc2ccc(Br)cc2)c1,MIC,[5],> 5 µg/mL
CCCCc1ccc(O)c(C(=O)Nc2cccc(C(F)(F)F)c2)c1,MIC,[5],0.5 µg/mL
CCCc1ccc(O)c(C(=O)Nc2ccc(Br)cc2)c1,logD,[1],5.38
same,Log 1/MIC,[2],5.35
same,logP,"[3]; octanol/buffer, read-out: logP",5.61
same,pKa,[4],7.35
same,MIC,[5],1.5 µg/mL
CCCCCCc1ccc(O)c(C(=O)NCc2ccc(Cl)c(Cl)c2)c1,MIC,[6],1 µg/mL
same,MIC,[7],0.5 µg/mL
same,MIC,[8],0.5 µg/mL
same,MIC,[5],0.5 µg/mL
same,MIC,[9],0.5 µg/mL
same,MIC,[10],0.5 µg/mL
same,MIC,[11],1 µg/mL
CCCCCCCCCCc1ccc(O)c(C(=O)Nc2ccc(Br)cc2)c1,MIC,[5],3.25 µg/mL
CCCCCCCCCC(=O)c1ccc(O)c(C(=O)Nc2ccc(Br)cc2)c1,logD,[1],6.88
same,Log 1/MIC,[2],6.87
same,logP,"[3]; octanol/buffer, read-out: logP",8.02
same,pKa,[4],6.1
same,MIC,[5],0.06 µg/mL
Cc1ccc(O)c(C(=O)NCCCCCCNC(=O)c2cc(C)ccc2O)c1,MIC,[5],> 20 µg/mL
Cc1cc(C)nc(NC(=O)c2cc(Br)cc(Br)c2O)n1,MIC,[5],200 µg/mL
O=C(NCCCCCCNC(=O)c1ccccc1O)c1ccccc1O,MIC,[5],> 20 µg/mL
Cc1ccc(O)c(C(=O)Nc2ccc(Br)cc2)c1,logD,[1],4.38
same,Log 1/MIC,[2],5.09
same,logP,"[3]; octanol/buffer, read-out: logP",4.61
same,pKa,[4],7.35
same,MIC,[5],2.5 µg/mL
same,MIC,[10],5.2 µg/mL
CCCCCCCC(=O)c1ccc(O)c(C(=O)Nc2cccc(C(F)(F)F)c2)c1,MIC,[5],0.5 µg/mL
CCCCCCCC(=O)c1ccc(O)c(C(=O)Nc2ccc(Br)cc2)c1,logD,[1],5.88
same,Log 1/MIC,[2],5.92
same,logP,"[3]; octanol/buffer, read-out: logP",7.02
same,pKa,[4],6.1
same,MIC,[5],0.5 µg/mL
CCCCCCCCCC(=O)c1ccc(O)c(C(=O)NCc2ccc(Cl)c(Cl)c2)c1,MIC,[5],0.5 µg/mL
O=C(Nc1nccs1)c1cc(Br)cc(Br)c1O,MIC,[5],95 µg/mL
O=C(Nc1ccc(Br)cc1)c1ccccc1O,logD,[1],3.78
same,Log 1/MIC,[2],4.47
same,logP,"[3]; octanol/buffer, read-out: logP",4.13
same,pKa,[4],7.1
same,MIC,[5],10 µg/mL
CCCCCCc1ccc(O)c(C(=O)Nc2ccc(Br)cc2)c1,logD,[1],6.88
same,Log 1/MIC,[2],7.58
same,logP,"[3]; octanol/buffer, read-out: logP",7.11
same,pKa,[4],7.35
same,MIC,[6],0.1 µg/mL
same,MIC,[7],1 µg/mL
same,MIC,[8],0.1 µg/mL
same,MIC,[5],0.01 µg/mL
same,MIC,[9],0.1 µg/mL
same,MIC,[10],0.1 µg/mL
same,MIC,[11],0.5 µg/mL
O=C(NCC1CCCCC1)c1cc(Br)cc(Br)c1O,MIC,[5],12 µg/mL
CCCCCCCCCC(=O)c1ccc(O)c(C(=O)Nc2ccc([N+](=O)[O-])cc2)c1,MIC,[6],0.05 µg/mL
same,MIC,[7],0.5 µg/mL
same,MIC,[8],0.05 µg/mL
same,MIC,[5],0.05 µg/mL
same,MIC,[9],0.05 µg/mL
same,MIC,[10],0.05 µg/mL
same,MIC,[11],0.05 µg/mL
O=C(Nc1nc2cc(Cl)ccc2o1)c1cc(Br)cc(Br)c1O,MIC,[5],> 35 µg/mL
COc1ccc(O)c(C(=O)Nc2ccc(Br)cc2)c1,MIC,[5],> 25 µg/mL
CCCCCCc1ccc(O)c(C(=O)NCc2ccc(C)c([N+](=O)[O-])c2)c1,MIC,[5],> 20 µg/mL
O=C(Nc1ccc(Br)cc1)c1cc(Br)cc(Br)c1O [TRIBROMSALAN],logD,[1],4.78
same,Log 1/MIC,[2],5.95
same,logP,"[3]; octanol/buffer, read-out: logP",6.15
same,pKa,[4],5.85
same,MIC,[6],5 µg/mL
same,MIC,[7],1 µg/mL
same,MIC,[8],1 µg/mL
same,MIC,[5],0.5 µg/mL
same,MIC,[9],1 µg/mL
same,MIC,[10],1 µg/mL
same,MIC,[11],0.5 µg/mL
O=C(Nc1ccc(Br)cc1)c1cc([N+](=O)[O-])ccc1O,logD,[1],3.16
same,Log 1/MIC,[2],5.05
same,logP,"[3]; octanol/buffer, read-out: logP",4.58
same,pKa,[4],5.8
same,MIC,[5],3 µg/mL
Cc1cc(C)nc(NC(=O)c2cc(Br)cc(Br)c2O)c1,MIC,[5],25 µg/mL
CCCCCCCCCC(=O)c1ccc(O)c(C(=O)Nc2nc3ccccc3s2)c1,MIC,[6],> 10 µg/mL
same,MIC,[7],> 10 µg/mL
same,MIC,[8],> 10 µg/mL
same,MIC,[5],0.5 µg/mL
same,MIC,[9],5 µg/mL
same,MIC,[10],10 µg/mL
same,MIC,[11],> 10 µg/mL
Cc1cccnc1NC(=O)c1cc(Br)cc(Br)c1O,MIC,[5],> 155 µg/mL
CCCCCCc1ccc(O)c(C(=O)Nc2nc3ccccc3s2)c1,MIC,[5],> 20 µg/mL
CCCCCCCC(=O)c1ccc(O)c(C(=O)Nc2ccc([N+](=O)[O-])cc2)c1,MIC,[5],0.1 µg/mL
CCCCCCc1ccc(O)c(C(=O)NCc2ccc([N+](=O)[O-])cc2)c1,MIC,[6],0.1 µg/mL
same,MIC,[7],0.05 µg/mL
same,MIC,[8],0.05 µg/mL
same,MIC,[5],0.05 µg/mL
same,MIC,[9],0.5 µg/mL
same,MIC,[10],0.05 µg/mL
same,MIC,[11],0.1 µg/mL
CCCCCCc1ccc(O)c(C(=O)NCc2cccc([N+](=O)[O-])c2)c1,MIC,[5],0.5 µg/mL
CCCCCCCCCCCC(=O)c1ccc(O)c(C(=O)Nc2ccc(Br)cc2)c1,logD,[1],7.88
same,Log 1/MIC,[2],7.37
same,logP,[3]; octanol/water,9.02
same,pKa,[4],6.1
same,MIC,[6],0.5 µg/mL
same,MIC,[7],0.5 µg/mL
same,MIC,[8],1 µg/mL
same,MIC,[5],0.02 µg/mL
same,MIC,[9],> 5 µg/mL
same,MIC,[10],0.5 µg/mL
same,MIC,[11],> 5 µg/mL
O=C(Nc1nc2cc(Cl)ccc2[nH]1)c1cc(Br)cc(Br)c1O,MIC,[5],4 µg/mL
O=C(Nc1nc2ccccc2s1)c1cc(Br)cc(Br)c1O,MIC,[5],1.7 µg/mL
O=C(NCc1ccc(Cl)cc1)c1cc(Br)cc(Br)c1O,MIC,[5],4 µg/mL
O=C(Nc1cccc(C(F)(F)F)c1)c1cc(Br)cc(Br)c1O [FLUOROSALAN],MIC,[6],0.1 µg/mL
same,MIC,[7],1 µg/mL
same,MIC,[8],0.5 µg/mL
same,MIC,[5],1 µg/mL
same,MIC,[9],0.5 µg/mL
same,MIC,[10],0.5 µg/mL
same,MIC,[11],0.5 µg/mL
CCCCCCc1ccc(O)c(C(=O)Nc2cccc(C(F)(F)F)c2)c1,MIC,[6],> 5 µg/mL
same,MIC,[7],0.05 µg/mL
same,MIC,[8],0.1 µg/mL
same,MIC,[5],0.5 µg/mL
same,MIC,[9],0.5 µg/mL
same,MIC,[10],0.05 µg/mL
same,MIC,[11],0.5 µg/mL
CCCCCCCCCCCC(=O)c1ccc(O)c(C(=O)Nc2ccc([N+](=O)[O-])cc2)c1,MIC,[5],0.05 µg/mL
CCCCCCCCc1ccc(O)c(C(=O)Nc2ccc(Br)cc2)c1,MIC,[5],0.2 µg/mL
CCCCCCc1ccc(O)c(C(=O)NCc2ccc(Cl)cc2)c1,MIC,[5],10 µg/mL
Cc1ccc(O)c(C(=O)Nc2ccc([N+](=O)[O-])cc2)c1,MIC,[5],5 µg/mL
O=C(NCCCCCCNC(=O)c1cc(Br)ccc1O)c1cc(Br)ccc1O,MIC,[5],> 20 µg/mL
